Results published in patent publication US8889639B2, “Compositions and methods for modulating PGC-1β to treat lipid-related diseases and disorders” (Dana-Farber Cancer Institute, Inc., priority 2004, dated 2014).

Tests used:
LXRα = assay: 4×LXRE-luc reporter in H2.35 hepatoma cells; format: cell-based, mouse; conditions: reporter containing multimerized LXR responsive elements, RNAi cotransfection
Description: FIG. 6A-E illustrate the coactivation of LXRα by PGC-1α and PGC-1β. In particular, FIG. 6A depicts H2.35 hepatoma cells that were transiently transfected with 4×LXRE-luc in combination with plasmids. Transfected cells were treated with either vehicle DMSO (open box) or 10 μM of the LXR agonist T0901317 (filled box) for 24 hours before luciferase assay. FIG. 6B depicts H2.35 hepatoma cells that were transiently transfected with wild-type ABCA1 promoter reporter plasmid-(ABCA1-luc) or a mutant lacking the LXRE (ABCA1 ΔLXRE-luc) in combination with plasmids. Transfected cells were treated with vehicle or T0901317 as described in FIG. 6A. FIG. 6C depicts CHIP analysis on LXR target genes. H2.35 cells were infected with adenoviruses expressing GFP, flag-PGC-1α or flag-PGC-1β. Cells were treated with 10 μM of T0901317 for 3 hours before harvesting. PCR was performed on input or precipitated DNA using primers as indicated FIG. 6D depicts the interaction between LXRα and the N-termini of the PGC-1β proteins. […]
FIGS. 7A-H illustrate the requirement for PGC-1β in SREBP-mediated transcription. […] Luciferase activity was measured 48 hours after transfection. […] Total RNA was isolated from infected cells and analyzed by real-time PCR using primers specific for the genes. […] Relative SREBP1c expression was determined by real-time PCR analysis and normalized to 18S rRNA. […]

SREBP2 and SREBP1a = assay: FAS -700 luc reporter with SREBP2 and SREBP1a and PGC-1β RNAi constructs in hepatoma cells; format: cell-based, mouse; conditions: FAS promoter reporter
Text: (§1) FIGS. 7A-H illustrate the requirement for PGC-1β in SREBP-mediated transcription. In particular, FIG. 7A depicts knockdown of PGC-1β protein levels by RNAi constructs. Cultured 293 cells were transiently transfected with PGC-1β expression plasmid (f-PGC-1β) in the presence of RNAi constructs or a vector control. Transfected cells were harvested for immunoblotting using a monoclonal antibody against the Flag epitope. Both RNAi constructs decrease PGC-1β protein levels compared to the vector control. FIGS. 7 B-E depict hepatoma cells that were transiently transfected with FAS—700 luc (B-C), G6Pase −1200 luc (D) or 4×LXRE-luc (E) in combination with plasmids. For RNAi, either a vector control or RNAi constructs directed toward PGC-1β were included in the transfection experiments. Luciferase activity was measured 48 hours after transfection. FIG. 7F depicts knockdown of PGC-1β protein by adenoviral expression of RNAi. H2.35 hepatoma cells were infected with Ad-GFP or Ad-RNAi for two days and then infected with Ad-PGC-1β. Total lysates were prepared for immunoblotting analysis using antibodies raised against PGC-1β. […] Total RNA was isolated from infected cells and analyzed by real-time PCR using primers specific for the genes. […] Relative SREBP1c expression was determined by real-time PCR analysis and normalized to 18S rRNA. […]

G6Pase promoter = assay: G6Pase -1200 luc reporter with PGC-1α and HNF4α and PGC-1β RNAi constructs in hepatoma cells; format: cell-based, mouse
Text: as §1

PGC-1β = assay: Free fatty acid treatment of primary hepatocytes, PGC-1β mRNA by real-time PCR; format: cell-based, mouse; conditions: 400 μM fatty acid, 4 hours
Text: FIGS. 1A-D depict the induction of PGC-1β expression by dietary intake of saturated fats. In particular, FIG. 1A depicts a cluster analysis of liver gene expression in response to high-fat feeding. FIG. 1A exemplifies genes involved in hepatic lipogenesis that are induced more than 1.8-fold in response to high-fat feeding. A representative probe set was used in generating the tree in the event multiple probe sets were available for a single gene. SREBP1c and PGC-1β were included in this lipogenic cluster. FIG. 1B depicts the real-time PCR analysis of total liver RNA from mice fed a high-fat diet for 1 day (hatched box) or 2 days (filled box). Relative mRNA abundance was calculated by normalization to the control chow values (open box); N=4;*: p<0.01. FIG. 1C depicts the real-time PCR analysis of total liver RNA from mice fed a control diet containing 0.07% cholesterol (open box) or a diet containing 2% cholesterol for 1 day (hatched box) or 2 days (filled box). Values were normalized to those from mice fed the control diet; N=4;*: p<0.02. FIG. 1D depicts the regulation of PGC-1β expression by free fatty acids in isolated hepatocytes. Primary hepatocytes were treated with 400 μM of various fatty acids for 4 hours. Total RNA was isolated and analyzed by realtime PCR using primers specific for […] and PGC-1β (open box); *: p<0.01.
Primary hepatocytes were isolated following perfusion of whole liver first with perfusion buffer (Hank's Balanced Saline, HBSS) and then a collagenase solution (HBSS with 1% BSA and 0.05% collagenase). Dispersed cells were resuspended and seeded onto collagen-coated plates in DMEM supplemented with 10% FBS in the presence of 1 mM sodium pyruvate, 1 μM dexamethasone and 50 nM insulin. The cells were subsequently maintained in DMEM supplemented with 0.1% BSA and 1 mM sodium pyruvate for 24 hours before treatments. Free fatty acids were dissolved in ethanol as 100 mM stock solutions for further dilution in DMEM supplemented with 0.5% BSA to a final concentration of 400 μM. Hepatocytes were treated for 4 hours before RNA isolation and analysis.
(§2) Total RNA was isolated from liver or cultured hepatocytes using Trizol reagent (Invitrogen™). For real-time PCR analysis, cDNA was synthesized by reverse transcription using random primers and subjected to PCR amplification with genespecific primers in the presence of Cybergreen (Biorad™). Relative abundance of mRNA was calculated after normalization to 18S ribosomal RNA. For hybridization, 20 μg of total RNA was resolved on a formaldehyde gel, transferred to nylon membrane and hybridized with 32P-labeled gene-specific probes. Hybridization to ribosomal protein 36B4 was included as loading control.

hepatic gene expression = assay: High-cholesterol feeding, liver gene expression by real-time PCR; format: in vivo, mouse; conditions: diet containing 2% cholesterol vs 0.07% control
Description: Animals were fed a standard rodent chow and housed in a controlled environment with twelve-hour light and dark cycles. For high-fat feeding, three-month old male C57/B16J mice were switched to a diet containing 58% fat-derived calorie (D12331, Research Diets™) for 24 or 48 hours. For high-cholesterol feeding, two groups of mice were fed a base diet supplemented with either 0.07% or 2% cholesterol for 24 or 48 hours. Liver was dissected and immediately frozen for RNA isolation. The feeding experiments were repeated three times with four mice per group for each dietary treatment.
as §2
To examine whether dietary cholesterol had any impact on the expression of SREBPs and PGC-1β mice were fed a control diet containing 0.07% cholesterol or a similar diet containing 2% cholesterol. […] This induction of the genetic program of hepatic lipogenesis following acute intake of a high saturated fat diet was not previously observed.

PGC-1α = assay: Free fatty acid treatment of primary hepatocytes, PGC-1α mRNA by real-time PCR; format: cell-based, mouse; conditions: 400 μM fatty acid, 4 hours
Description: FIG. 1D depicts the regulation of PGC-1β expression by free fatty acids in isolated hepatocytes. Primary hepatocytes were treated with 400 μM of various fatty acids for 4 hours. Total RNA was isolated and analyzed by realtime PCR using primers specific for PGC-1β (filled box) and PGC-1β (open box); *: p<0.01.
Total RNA was isolated from liver or cultured hepatocytes using Trizol reagent (Invitrogen™). […] Relative abundance of mRNA was calculated after normalization to 18S ribosomal RNA.

## 5′-GATATCCTCTGTGATGTTA-3′ (expressed or natural sequence) [SEQ ID NO 60, PGC-1β RNAi construct in pSUPER-retro vector under the H1-RNA promoter]
LXRα
  LXRα/RXRα transcriptional activity: do not alter
SREBP2 and SREBP1a
  SREBP transcriptional activity with SREBP2 and SREBP1a: very similar reduction
G6Pase promoter
  regulation of G6Pase promoter activity by PGC-1α and HNF4α: little or no effect

## 5′-GTACGGAACTGCATAAGCA-3′ (expressed or natural sequence; the letters are possibly those of the target site) [SEQ ID NO:61, PGC-1β RNAi construct in pSUPER-retro vector under the H1-RNA promoter]
LXRα
  LXRα/RXRα transcriptional activity: do not alter
SREBP2 and SREBP1a
  SREBP transcriptional activity with SREBP2 and SREBP1a: very similar reduction
G6Pase promoter
  regulation of G6Pase promoter activity by PGC-1α and HNF4α: little or no effect

## CC/C=C\C/C=C\C/C=C\C/C=C\C/C=C\CCCC(=O)O [EPA]
PGC-1β
  PGC-1β expression: only slightly induce

## CCCCC/C=C\C/C=C\C/C=C\C/C=C\CCCC(=O)O [arachidonic acid]
PGC-1β
  PGC-1β expression: only slightly induce

## CC(C)CCC[C@@H](C)[C@H]1CC[C@H]2[C@@H]3CC=C4C[C@@H](O)CC[C@]4(C)[C@H]3CC[C@]12C [cholesterol]
Hepatic gene expression
  SREBP1c mRNA: slightly increased
  expression of PGC-1β: not altered
  hepatic expression of mRNA encoding SREBP2, along with HMGCoA reductase: suppresses
  mRNA level of FAS, SCD-1 and glucose kinase (GK): remains largely unchanged

## CCCCCCCC/C=C/CCCCCCCC(=O)O [elaidic acid]
PGC-1α
  expression of PGC-1α: 3.2 fold

## CCCCC/C=C\C/C=C\CCCCCCCC(=O)O [linoleic acid]
PGC-1β
  PGC-1β expression: only slightly induce

## CCCCCCCC/C=C\CCCCCCCC(=O)O [oleic acid]
PGC-1β
  PGC-1β expression: only slightly induce

## CCCCCCCCCCCCCCCCCC(=O)O [stearic acid]
PGC-1β
  PGC-1β mRNA: 2.2 fold

## CCCCCC/C=C/CCCCCCCCCC(=O)O [trans-vaccenic acid]
PGC-1α
  expression of PGC-1α: 3.2 fold
